In US20250041237A1, “HEMOGLOBIN-BASED NANOPARTICLES” (priority 2023, published 2025):

How the values were obtained:
[1] = tested on: murine or human neutrophils; assay: Transwell chemotaxis assay; assay type: cell-based; details: lipid radical scavenger added
From the text: Transwell chemotaxis assay. Cytoplasmic membranes of S. aureus Newman, MRSA, or MDRSA were isolated from lysostaphin-induced protoplasts as previously described. Briefly, the bacterial cells were washed and resuspended in buffered hypertonic sucrose, followed by treatment with lysostaphin to digest the cell walls. The resulting protoplasts were recovered and lysed in the dilute buffer to extract cytoplasmic membranes. To evaluate the chemotaxis ability of human or murine neutrophils towards S. aureus membranes, a 96-transwell plate with 3 μm pores was used (Corning, USA). The bottom wells were loaded with 200 μL of the bacterial cell membrane in chemotaxis buffer (49% HBSS, 0.5% human serum albumin, 4 mM L-glutamine, and 49% RPMI 1640), while the top wells contained 2×10^5 neutrophils in 75 μL chemotaxis buffer. The plate was incubated in the dark at 37° C. with 5% CO2 for 1.5 h. Neutrophils that had migrated into the bottom wells were lysed with elastase assay buffer to release the neutrophil elastase. The activity of elastase was measured using the chromogenic substrate, N-methoxysuccinyl-Ala-Ala-Pro-Val-p-nitroanilide, at a final concentration of 1 mM. The absorbance at 405 nm was measured using a GloMax-Multi microplate multimode reader (Promega, WI, USA) to determine the number of migrated neutrophils.

[2] = tested on: MRSA; assay: Mouse MRSA peritonitis model study; assay type: in vivo, ICR mice; details: treated i.v. 6 h after MRSA i.p. inoculation; monitored two weeks

SMILES	Hb-Naf@RBCM-induced neutrophil recruitment [1]	survival [2]
Clc1cccc(CN=C2Nc3ccccc3NC23CCNCC3)c1 [Liproxstatin-1]	significantly inhibited	–
CN(C/C=C/c1ccccc1)Cc1cccc2ccccc12 [naftifine]	–	12.5%
